Results on 29 compounds are retold here after US20230303540A1 (Merck Sharp & Dohme LLC, priority 2020, published 2023).

For this assay, the target named is GST-tagged truncated human mutant G2019S LRRK2 (Homo sapiens, UniProt Q5S007, G2019S). In words: LRRK2 G2019S Km ATP LanthaScreen assay. The following applies: 134 μM ATP (Km ATP), LRRKtide substrate, mean IC50 values; read-out: LRRK2 pIC50 (converted). It counts as biochemical. An outline of the steps:
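Compound preincubated 15 min at room temperature with enzyme in pH 8.5 Tris buffer (10 mM MgCl2). Then a 90 min reaction at ambient temperature with 134 μM (Km) ATP and fluorescein-LRRKtide. EDTA stop, Tb anti-phospho antibody TR-FRET; […]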
(In general: Time-resolved FRET reads energy transfer from a long-lived donor to a nearby acceptor.)
As to `CCc1cc2cnc(Nc3cnn(C4CC4(F)F)c3Cl)nc2cc1N1CCN(C2(C)COCC2O)CC1` (single isomer, unassigned) [Ex-8.3, (3S,4S) or (3R,4R) 4-(4-(2-((5-chloro-1-(2,2-(R) or (S)difluorocyclopropyl)-1H-pyrazol-4-yl)amino)-6-ethylquinazolin-7-yl)piperazin-1-yl)-4-methyltetrahydrofuran-3-ol], the IC50 is 0.745 nM.
The value for `CC1CCN1c1cc2nc(Nc3cnn(C4CCN(C5(C)COC5)CC4)c3)ncc2cc1Cl` (centres unmarked) [Ex-4.11, 6-chloro-7-(2-methylazetidin-1-yl)-N-{1-[1-(3-methyloxetan-3-yl)piperidin-4-yl]-1H-pyrazol-4-yl}quinazolin-2-amine] was 35.3 nM.
With `CO[C@H]1CCN(c2cc3nc(Nc4cnn(C5(C)CC5)c4Cl)ncc3cc2Cl)C1` [Ex-4.40, 6-chloro-N-[5-chloro-1-(1-methylcyclopropyl)-1H-pyrazol-4-yl]-7-[(3S)-3-methoxypyrrolidin-1-yl]quinazolin-2-amine], the IC50 was 15.2 nM.
On to `CC1(N2CCN(c3cc4nc(Nc5cnn(CC6C[C@@H](F)[C@H](F)C6)c5)ncc4cc3Cl)CC2)COC1` [Ex-4.65, 6-chloro-N-(1-{[(3R,4R)-3,4-difluorocyclopentyl]methyl}-1H-pyrazol-4-yl)-7-[4-(3-methyloxetan-3-yl)piperazin-1-yl]quinazolin-2-amine], for which the IC50 was 23.9 nM.
As for `CC1(O)CCN(c2cc3nc(Nc4cnn(C5CC5)c4Cl)ncc3cc2Cl)CC1` [Ex-3.26, 1-{6-chloro-2-[(5-chloro-1-cyclopropyl-1H-pyrazol-4-yl)amino]quinazolin-7-yl}-4-methylpiperidin-4-ol], the IC50 was 5.63 nM.
As to `Cc1c(N2CCN(C3(C)COC3)CC2)c(Cl)cc2cnc(Nc3cnn(CC(F)(F)F)c3)nc12` [Ex-4.3, 6-Chloro-8-methyl-7-(4-(3-methyloxetan-3-yl)piperazin-1-yl)-N-(1-(2,2,2-trifluoroethyl)-1H-pyrazol-4-yl)quinazolin-2-amine], the IC50 was 3.36 nM.
As for `CC1(O)CCN(c2cc3nc(Nc4cnn(C5(C)CC5)c4Cl)ncc3cc2Cl)CC1` [Ex-4.34, 1-(6-chloro-2-{[5-chloro-1-(1-methylcyclopropyl)-1H-pyrazol-4-yl]amino}quinazolin-7-yl)-4-methylpiperidin-4-ol], the figure is 0.625 nM.
As for `CCn1ncc(Nc2ncc3ccc(N4C(=O)C5CCC4C5)cc3n2)c1C` (centres unmarked) [Ex-7.20, 2-{2-[(1-ethyl-5-methyl-1H-pyrazol-4-yl)amino]quinazolin-7-yl}-2-azabicyclo[2.2.1]heptan-3-one], the figure is 11.3 nM.
As to `Cc1cc2cnc(Nc3cnn(C4CC4)c3C)nc2cc1N1CCN(C2(C)COCC2O)CC1` (single isomer, unassigned) [Ex-5.4, (3S,4S) or (3R,4R) 4-(4-(2-((1-cyclopropyl-5-methyl-1H-pyrazol-4-yl)amino)-6-methylquinazolin-7-yl)piperazin-1-yl)-4-methyltetrahydrofuran-3-ol], the IC50 was 0.18 nM.
As for `Cc1cc2cnc(Nc3cnn(C45CC(C4)C5)c3Cl)nc2cc1N1CCN(C2(C)COCC2O)CC1` (single isomer, unassigned) [Ex-13.5, (3S,4S) or (3R, 4R)-4-(4-(2-((1-(bicyclo[1.1.1]pentan-1-yl)-5-chloro-1H-pyrazol-4-yl)amino)-6-methylquinazolin-7-yl)piperazin-1-yl)-4-methyltetrahydrofuran-3-ol], the figure is 9.89 nM; as for `CC1CN(C2CCN(c3cc4nc(Nc5cnn(C6(C)CC6)c5Cl)ncc4cc3Cl)CC2)C1` [Ex-4.43, 6-chloro-N-[5-chloro-1-(1-methylcyclopropyl)-1H-pyrazol-4-yl]-7-[4-(3-methylazetidin-1-yl)piperidin-1-yl]quinazolin-2-amine], 3.52 nM; as for `CC(C)(O)Cn1ncc(Nc2ncc3cc(Cl)c(N4CCC(C)(O)CC4)cc3n2)c1Cl` [Ex-3.13, 1-(6-chloro-2-{[5-chloro-1-(2-hydroxy-2-methylpropyl)-1H-pyrazol-4-yl]amino}quinazolin-7-yl)-4-methylpiperidin-4-ol], 1.54 nM.
The value for `COC1CCC1n1ncc(Nc2ncc3cc(Cl)c(N4CCC(C)(O)CC4)cc3n2)c1C` (single isomer, unassigned) [Ex-6.17, 1-[6-chloro-2-({1-[(1R,2S) or (1S,2R)-2-methoxycyclobutyl]-5-methyl-1H-pyrazol-4-yl}amino)quinazolin-7-yl]-4-methylpiperidin-4-ol] was 10.5 nM; that for `OC1COCC12CCN(c1cc3nc(Nc4cnn(C5CC5(F)F)c4Cl)ncc3cc1Cl)CC2` (single isomer, unassigned) [Ex-3.57] was 23.1 nM; that for `CCn1ncc(Nc2ncc3ccc(N4CCCC4C)cc3n2)c1C` (single isomer, unassigned) [Ex-1.9, (S) or (R) N-(1-ethyl-5-methyl-1H-pyrazol-4-yl)-7-(2-methylpyrrolidin-1-yl)quinazolin-2-amine] was 36.1 nM.
As for `CC(C)Nc1ccc2cnc(Nc3cnn(C4CCN(C5(C)COC5)CC4)c3)nc2c1` [Ex-4.9, N~2~-{1-[1-(3-methyloxetan-3-yl)piperidin-4-yl]-1H-pyrazol-4-yl}-N~7~-(propan-2-yl)quinazoline-2,7-diamine], the figure is 9.16 nM.
`CC1(N2CCN(c3cc4nc(Nc5cnn(C6CC6(F)F)c5Cl)ncc4cc3Cl)CC2)COCC1O` (single isomer, unassigned) [Ex-6.2, (3S,4S) or (3R,4R) 4-(4-(6-chloro-2-((5-chloro-1-(2,2-(R) or (S)difluorocyclopropyl)-1H-pyrazol-4-yl)amino)quinazolin-7-yl)piperazin-1-yl)-4-methyltetrahydrofuran-3-ol]: the IC50 was 0.08 nM.
The value for `Cn1ncc(Nc2ncc3cc(Cl)c(N4CCN(C5(C)COCC5O)CC4)cc3n2)c1Cl` (single isomer, unassigned) [Ex-6.36, (3S,4S) or (3R,4R) 4-[4-{6-chloro-2-[(5-chloro-1-methyl-1H-pyrazol-4-yl)amino]quinazolin-7-yl}piperazin-1-yl)-4-methyloxolan-3-ol] was 11.2 nM; that for `COC1CCC1n1ncc(Nc2ncc3cc(Cl)c(N4CCC(C)(O)CC4)cc3n2)c1C` (single isomer, unassigned) [Ex-6.19, 1-[6-chloro-2-({1-[(1R,2R) or (1S,2S)-2-methoxycyclobutyl]-5-methyl-1H-pyrazol-4-yl}amino)quinazolin-7-yl]-4-methylpiperidin-4-ol] was 2.17 nM; that for `Cc1c(Nc2ncc3cc(Cl)c(N4CCN(C5COCC5O)CC4)cc3n2)cnn1C1CC1(F)F` (single isomer, unassigned) [Ex-6.43, (3S,4S) or (3R,4R) 4-[4-(6-chloro-2-{[1-(2,2-(R) or (S)difluorocyclopropyl)-5-methyl-1H-pyrazol-4-yl]amino}quinazolin-7-yl)piperazin-1-yl]oxolan-3-ol] was 7.92 nM.
As for `Cc1c(Nc2ncc3cc(Cl)c(N4CCN(C5COCC5O)CC4)nc3n2)cnn1C1CC1` (single isomer, unassigned) [Ex-16.3, (3S,4S) or (3R,4R)-4-(4-{6-chloro-2-[(1-cyclopropyl-5-methyl-1H-pyrazol-4-yl)amino]pyrido[2,3-d]pyrimidin-7-yl}piperazin-1-yl)oxolan-3-ol], the figure is 4.55 nM; as for `CC1(N2CCN(c3cc4nc(Nc5cnn(C6CC6(F)F)c5Cl)ncc4cc3Cl)CC2)COCC1O` (single isomer, unassigned) [Ex-6.34, (3S,4S) or (3R,4R) 4-[4-(6-chloro-2-{[5-chloro-1-(2,2-(R) or (S)difluorocyclopropyl)-1H-pyrazol-4-yl]amino}quinazolin-7-yl)piperazin-1-yl]-4-methyloxolan-3-ol], 10.6 nM; as for `COCC12CC(n3cc(Nc4ncc5cc(Cl)c(N6CCC7(CC6)COC(CO)C7)cc5n4)cn3)(C1)C2` (centres unmarked) [Ex-3.15, {8-[6-chloro-2-({1-[3-(methoxymethyl)bicyclo[1.1.1]pentan-1-yl]-1H-pyrazol-4-yl}amino)quinazolin-7-yl]-2-oxa-8-azaspiro [4.5]decan-3-yl}methanol], 0.227 nM.
On to `CC1(n2ncc(Nc3ncc4cc(Cl)c(N5CCn6cnnc6C5)cc4n3)c2Cl)CC1` [Ex-4.45, 6-chloro-N-[5-chloro-1-(1-methylcyclopropyl)-1H-pyrazol-4-yl]-7-(5,6-dihydro[1,2,4]triazolo[4,3-a]pyrazin-7(8H)-yl)quinazolin-2-amine], for which the IC50 was 1.27 nM.
Take `COC1CCC1n1ncc(Nc2ncc3cc(Cl)c(N4CCC(C)(O)CC4)cc3n2)c1C` (single isomer, unassigned) [Ex-6.16, 1-(6-chloro-2-((1-((1R,2S) or (1S,2R)-2-methoxycyclobutyl)-5-methyl-1H-pyrazol-4-yl)amino)quinazolin-7-yl)-4-methylpiperidin-4-ol]: the IC50 is 1.57 nM.
In the case of `OC1CCN(c2cc3nc(Nc4cnn(CC(F)F)c4Cl)ncc3cc2Cl)CC1` [Ex-1.21, 1-(6-chloro-2-{[5-chloro-1-(2,2-difluoroethyl)-1H-pyrazol-4-yl]amino}quinazolin-7-yl)piperidin-4-ol], the IC50 is 6.09 nM.
The value for `Cc1cc2cnc(Nc3cnn(C)c3C)nc2cc1N1CCN(C2COCC2O)CC1` (single isomer, unassigned) [Ex-2.3, (3S,4S or 3R,4R)-4-(4-{2-[(1,5-dimethyl-1H-pyrazol-4-yl)amino]-6-methylquinazolin-7-yl}piperazin-1-yl)oxolan-3-ol] was 1.77 nM; that for `CC1(n2ncc(Nc3ncc4cc(Cl)c(N5CCN(CCC#N)CC5)cc4n3)c2Cl)CC1` [Ex-3.20, 3-[4-(6-chloro-2-{[5-chloro-1-(1-methylcyclopropyl)-1H-pyrazol-4-yl]amino}quinazolin-7-yl)piperazin-1-yl]propanenitrile] was 1.07 nM; that for `O[C@@H]1COCC12CCN(c1cc3nc(Nc4cnn(C5CC5)c4Cl)ncc3cc1Cl)CC2` [Ex-3.3] was 17.2 nM.
